Data published in US20230303613A1, “3′3′ CYCLIC DINUCLEOTIDES WITH AN ALKENYLENE” (Institute of Organic Chemistry and Biochemistry AS CR, v.v.i, priority 2020, published 2023).
Like-named read-outs stand apart in the source and are kept apart here.

Tests used:
WT STING [1] = biological target: T1, WT STING (Homo sapiens, UniProt Q86WV6, H232R); assay: Digitonin assay using 293T wtSTING-FL reporter cells; type: cell-based; conditions: 293T wtSTING-FL cells; 30 minutes in Digitonin buffer, then 5 hours; ISRE firefly luciferase reporter
From the text: (§1) Two complementary oligonucleotides of the sequence […] […] […] […] […] The oligonucleotides were mixed in equal molar amounts, hybridized, and cleaved by restriction endonucleases HindIII (cat. #. R0104S, NEB, Ipswich, USA) and BglII (cat. # R0144S, NEB, Ipswich, USA). Ultimately, they were ligated into plasmid pGL4.27 (cat. # E6651, Promega, Madison, USA) linearized with the same enzymes. As result the sequence with four ISRE sites was placed upstream of the minimum promoter of firefly luciferase reporter gene.
(§2) After 5 minutes incubation at room temperature (RT), 250 µL of the mixture was added dropwise to the cells in one well. Cells were incubated 36 hours at 37° C. with 5% CO2, and then detached with 0.05% Trypsin and 0.22 g/L EDTA (both cat. # L0941, Biowest, Riverside, USA).
(§3) Transfected cells were seeded onto poly-D-lysine coated six well plates at density 50,000 cells per 1 cm^2 in DMEM medium with high glucose containing 10% heat inactivated FBS, 30 µg/mL blasticidin (cat. # ant-bl-05, InvivoGen, San Diego, USA), 0.06 mg/ml Penicillin G and 0.1 mg/ml Streptomycin Sulfate (both cat. #. L0018, Biowest, Riverside, USA). The medium was replenished every 3 - 4 days until visible colonies of cells resistant to blasticidin were formed.
(§4) Blasticidin resistant cells stably expressing WT STING were further transfected with […] plasmid following the same procedure as described above. […] Homogeneous culture of stably double transfected cells was prepared by limiting dilution of cells in 96 well plates and wells with cells were selected that originated from a single cell.
The medium was removed next day and three fold serial dilutions of compounds in Digitonin buffer containing 50 mmol.l^-1 HEPES (cat. # H3375, Sigma Aldrich, Czech Republic) pH 7.0, 100 mmol.1^-1 KCl, 3 mmol.l^-1 MgCl2, 0.1 mmol.l^-1 DTT (cat. # D0632, Sigma Aldrich, Czech Republic), 85 mmol.1^-1 Sucrose (cat. # S7903, Sigma Aldrich, Czech Republic), 0.2% BSA (cat. # A2153, Sigma Aldrich, Czech Republic), 1 mmol.l^-1 ATP (cat. # A1852, Sigma Aldrich, Czech Republic), 0.1 mmol.1^-1 GTP (cat. # G8877, Sigma Aldrich, Czech Republic), and 10 µg/mL Digitonin A (cat. # D141, Sigma Aldrich, Czech Republic) were added to the cells. The buffer was removed after 30 minutes incubation at 37° C. with 5% CO2, the cells were washed once with 100 µl of cultivation medium, and 100 µl of medium was added to each well. The plates with cells were incubated for 5 hours at 37° C. with 5% CO2, 50µl of the medium was removed and 30 µl of ONE-Glo^Tm Luciferase Assay System reagent (cat. # E6120, Promega, Madison, USA) was added to each well. Luminescence was read on Synergy H1 (Biotek, Winooski, USA).
Target sequence in this assay (Q86WV6 whole entry H232R): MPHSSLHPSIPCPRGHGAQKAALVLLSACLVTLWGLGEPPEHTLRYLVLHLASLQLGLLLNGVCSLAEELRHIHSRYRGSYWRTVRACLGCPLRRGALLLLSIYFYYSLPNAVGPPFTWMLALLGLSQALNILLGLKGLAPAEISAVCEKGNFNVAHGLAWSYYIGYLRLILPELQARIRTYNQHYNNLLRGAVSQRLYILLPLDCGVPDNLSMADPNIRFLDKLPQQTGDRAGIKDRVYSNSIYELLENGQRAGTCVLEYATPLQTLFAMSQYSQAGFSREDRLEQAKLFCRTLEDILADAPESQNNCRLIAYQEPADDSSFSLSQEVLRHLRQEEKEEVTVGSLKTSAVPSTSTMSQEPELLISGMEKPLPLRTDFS

AQ STING (G230A-R293Q) = biological target: T2, AQ STING (G230A-R293Q) (Homo sapiens, UniProt Q86WV6, G230A/H232R/R293Q); assay: Differential Scanning Fluorimetry with AQ STING; type: binding; conditions: thermal shift vs apoprotein, 150 µM CDN, truncated human AQ STING 0.1 mg/ml; for ΔTm at 150 µM: read-out: DSF ΔTm AQ STING
T2 construct: 8xHis (N, cleaved yes); SUMO (N, cleaved yes); made in house; host or cells: E. coli Rosetta-gami B (DE3)
From the text: (§5) Purified PCR products were cleaved with restriction enzymes BamHI (cat. # R0136S, NEB, Ipswich, USA) and NotI (cat. # R0189S, NEB, Ipswich, USA) and cloned into the pSUMO vector linearized with the identical enzymes.
(§6) Bacterial pellets were re-suspended in ice-cold lysis buffer containing 50 mmol.1^-1 TrisCl (cat. # T1503, Sigma Aldrich, Czech Republic) pH 8.0, 300 mmol.1^-1 NaCl, 3 mmol.1^-1 β-mercaptoethanol (cat. # M6250, Sigma Aldrich, Czech Republic), 10% glycerol (cat. # G5516, Sigma Aldrich, Czech Republic) and 20 mmol.1^-1 imidazole (cat. # I5513, Sigma Aldrich, Czech Republic) using Dounce homogenizer. DNase I (cat. # D5025, Sigma Aldrich, Czech Republic) and RNase A (cat. # R6513, Sigma Aldrich, Czech Republic) were added (final concentration 50 µg/ml) together with MgCl2 (final concentration 5 mmol.l^-1) to the homogenate and bacteria were lysed using French Press G-M™ High-Pressure Cell Press Homogenizer (1500 psi, 3 cycles). […] The resin was poured into a chromatography column, washed with 50 ml buffer A (50 mmol.1^-1 TrisCl (pH 8.0), 800 mmol.1^-1 NaCl, 3 mmol.1^-1 β-mercaptol; 10% glycerol; 20 mmol.1^-1 imidazole) and 8-His-SUMO tagged STING proteins were eluted with 15 ml buffer A containing 300 mmol.1^-1 imidazole. […] Proteins were concentrated with Amicon® Ultra-15 10 K device (cat. # UFC901008, Merck Millipore, Billerica, USA) and flash frozen in liquid N2.
(§7) 20 µL solutions of the reaction mixtures were pipetted in triplicates into 96 well optical reaction plates and thermal denaturation of samples were performed on real time PCR cycler (LightCycler® 480 Instrument II - Roche, Basel, Switzerland). The first derivative of the thermal denaturation curves was performed to calculate denaturing temperatures of STING - CDN complexes and STING apoproteins. The thermal shift for each CDN was calculated by subtracting the average denaturing temperature of STING apoprotein from the average denaturing temperature of STING CDN complex.

WT STING [2] = biological target: T1, WT STING; assay: Differential Scanning Fluorimetry with WT STING; type: binding; design: 8xHis (N, cleaved yes); SUMO (N, cleaved yes); made in house; host or cells: E. coli Rosetta-gami B (DE3); conditions: thermal shift vs apoprotein, 150 µM CDN, truncated human WT STING 0.1 mg/ml; for ΔTm at 150 µM: read-out: DSF ΔTm WT STING
From the text: as §5, §6, §7
Target sequence in this assay (Q86WV6 140-343 H232R): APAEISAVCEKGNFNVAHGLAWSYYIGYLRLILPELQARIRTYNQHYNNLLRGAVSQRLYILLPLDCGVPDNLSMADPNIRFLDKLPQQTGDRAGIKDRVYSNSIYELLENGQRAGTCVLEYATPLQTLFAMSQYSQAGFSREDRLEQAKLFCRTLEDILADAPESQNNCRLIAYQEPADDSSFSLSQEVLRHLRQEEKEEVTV

WT STING [3] = biological target: T1, WT STING; assay: 293T WT STING standard reporter assay; type: cell-based; conditions: 293T wtSTING-FL cells; 7 hours with compound, no digitonin; ISRE firefly luciferase reporter
From the text: as §1, §2, §3, §4
Target sequence in this assay (Q86WV6 whole entry H232R): as the sequence (Q86WV6 whole entry H232R) above
The medium was removed next day and three-fold serial dilutions of compounds in 100 µl medium were added to the cells. The plates with cells were incubated for 7 hours at 37° C. with 5% CO2. After 50 µl of the medium was removed, 30 µl of ONE-Glo^Tm Luciferase Assay System reagent (cat. # E6120, Promega, Madison, USA) was added to each well and luminescence was read on Synergy H1 (Biotek, Winooski, USA).

[4] = system: peripheral blood mononuclear cell (PBMC); assay: Peripheral blood mononuclear cell assay; type: cell-based; conditions: PBMC, 1h with compound, washed, 15 hour incubation
Description: Selected compounds were tested in an in vitro peripheral blood mononuclear cell (PBMC) assay. Freshly isolated PBMCs were seeded into U-shaped shaped 96-well plates at desity 500,000 cells per well in 50 µl of RPMI 1640 medium supplemented with 10% heat inactivated FBS. Serially dilluted tested compounds were added to wells in 50 µl of cultivation medium and cell were incubated with compounds for 1h at 37° C. with 5% CO2. Plates with cells were then spun 500 g for 5 minutes and medium was removed. Cells were washed twice with the cell culture medium by the use of centrifugation and gently resuspended in 100 µl medium without compounds. After 15 hour incubation at 37° C. with 5% CO2, the cell culture medium was collected and the levels of interferon-alpha (INF-α), interferon-gamma (INF-γ) and tumor necrosis factor-alpha (TNF-α) were determined with ProcartaPlex Assays (ThermoFisher, Waltham, USA) and MAGPIX System (Merck KGaA, Darmstadt, Germany).

[5] = IFN-α level in medium, read-out: PBMC EC50 IFN-α
[6] = IFN-γ level in medium, read-out: PBMC EC50 IFN-γ
[7] = TNF-α level in medium, read-out: PBMC EC50 TNF-α

T2 sequence (Q86WV6 140-343 G230A/H232R/R293Q): as the sequence (Q86WV6 140-343 H232R) above, with G91A, R154Q counted along it

Row | SMILES | EC50 (WT STING [1]) [nM] | ΔTm at 150 µM (AQ STING (G230A-R293Q)) [°C] | ΔTm at 150 µM (WT STING [2]) [°C] | EC50 (WT STING [3]) [nM] | also measured
1 | Nc1nc2c(ncn2[C@@H]2O[C@@H]3COP(=O)(O)O[C@H]4C[C@H](n5cnc6c(N)ncnc65)O[C@@H]4/C=C/P(=O)(O)O[C@H]3[C@H]2F)c(=O)[nH]1 [Compound 59, (1S,6R,8R,9R,10R,13E,15R,17R)-8-(2-amino-6-oxo-6,9-dihydro-1H-purin-9-yl)-17-(6-amino-9H-purin-9-yl)-9-fluoro-3,12-dihydroxy-2,4,7,11,16-pentaoxa-3λ^5, 12λ^5-diphosphatricyclo[13.3.0.0^6,^10]octadec-13-ene-3,12-dione] | 700 |  |  |  | 
2 | Nc1nc2c(ncn2[C@H]2C[C@@H]3OP(=O)(O)/C=C/[C@H]4O[C@@H](n5cnc6c(N)ncnc65)[C@H](F)[C@@H]4OP(=O)(O)OC[C@H]3O2)c(=O)[nH]1 [Compound 57, (1R,6R,8R,10S,13E,15R,17R,18R)-8-(2-amino-6-oxo-6,9-dihydro-1H-purin-9-yl)-17-(6-amino-9H-purin-9-yl)-18-fluoro-3,12-dihydroxy-2,4,7,11,16-pentaoxa-3λ^5,12λ^5-diphosphatricyclo[13.3.0.0^6,^10]octadec-13-ene-3,12-dione] | 120 | 11.3 | 6.1 |  | 
3 | Nc1nc2c(ncn2[C@@H]2O[C@@H]3/C=C/P(=O)(O)O[C@H]4[C@@H](F)[C@H](n5cnc6c(N)ncnc65)O[C@@H]4COP(=O)(O)O[C@H]3[C@H]2F)c(=O)[nH]1 [Compound 54, (1R,6R,8R,9R,10R,13E,15R,17R,18R)-17-(2-amino-6-oxo-6,9-dihydro-1H-purin-9-yl)-8-(6-amino-9H-purin-9-yl)-9,18-difluoro-3,12-dihydroxy-2,4,7,11,16-pentaoxa-3λ^5,12λ^5-diphosphatricycl [13.3.0.0^6,^10]octadec-13-ene-3,12-dione] | 20 | 15 | 9.2 |  | 
4 | Nc1ncnc2c1ncn2[C@@H]1O[C@@H]2COP(=O)(O)O[C@H]3[C@@H](O)[C@H](n4cnc5c(N)ncnc54)O[C@@H]3COP(=O)(O)O[C@H]2[C@H]1O [3′3′c-di-AMP, 3′3′-c-di-AMP, reference compound] | 300 |  |  |  | DSF ΔTm AQ STING (AQ STING (G230A-R293Q)): 9.3 °C; DSF ΔTm WT STING (WT STING [2]): 2.6 °C

Now from value to molecule, other results behind:

Row | EC50 (WT STING [1]) [nM] | ΔTm at 150 µM (AQ STING (G230A-R293Q)) [°C] | ΔTm at 150 µM (WT STING [2]) [°C] | EC50 (WT STING [3]) [nM] | SMILES | also measured
5 | 280 |  |  | 71800 | Nc1ncnc2c1ncn2[C@@H]1O[C@@H]2/C=C/P(=O)(O)O[C@H]3C[C@H](n4cnc5c(N)ncnc54)O[C@@H]3COP(=O)(O)O[C@H]2[C@H]1F [Compound 60, (1R,6R,8R,10S,13E,15R,17R,18R)-8,17-bis(6-amino-9H-purin-9-yl)-18-fluoro-3,12-dihydroxy-2,4,7,11,16-pentaoxa-3λ^5,12λ^5-diphosphatricyclo[13.3.0.0^6,^10]octadec-13-ene-3,12-dione] | EC50 [4, 5]: > 500000 nM; EC50 [4, 6]: 164000 nM; EC50 [4, 7]: 100000 nM
6 | 5000 | 8 | 3.1 |  | Nc1nc(N)c2ncn([C@@H]3O[C@@H]4COP(=O)(O)O[C@H]5[C@@H](O)[C@H](n6cnc7c(=O)[nH]c(N)nc76)O[C@@H]5/C=C\P(=O)(O)O[C@H]4[C@H]3F)c2n1 [Compound 65, (1S,6R,8R,9R,10R,13Z,15R,17R,18R)-17-(2-amino-6-oxo-6,9-dihydro-1H-purin-9-yl)-8-(2,6-diamino-9H-purin-9-yl)-9-fluoro-3,12,18-trihydroxy-2,4,7,11,16-pentaoxa-3λ^5,12λ^5-diphosphatricyclo[13.3.0.0^6,^10]octadec-13-ene-3,12-dione] | 
7 | 750 |  |  | > 200000 | Nc1ncnc2c1ncn2[C@@H]1O[C@@H]2COP(=O)(O)O[C@H]3C[C@H](n4cnc5c(N)ncnc54)O[C@@H]3/C=C/P(=O)(O)O[C@H]2[C@H]1F [Compound 61, (1S,6R,8R,9R,10R,13E,15R,17R)-8,17-bis(6-amino-9H-purin-9-yl)-9-fluoro-3,12-dihydroxy-2,4,7,11,16-pentaoxa-3λ^5,12λ^5-diphosphatricyclo[13.3.0.0^6,10]octadec-13-ene-3,12-dione] | 
8 |  |  |  | 15 | CC1(C(=O)OCOP2(=O)/C=C/[C@H]3O[C@@H](n4cnc5c(N)ncnc54)[C@H](F)[C@@H]3OP(=O)(OCOC(=O)C3(C)CCCCC3)OC[C@H]3O[C@@H](n4cnc5c(N)ncnc54)[C@H](F)[C@@H]3O2)CCCCC1 (single isomer, unassigned) [Compound 82c] | EC50 [4, 5]: 100 nM; EC50 [4, 6]: 70 nM; EC50 [4, 7]: 60 nM
